US6441042B1 (dated 2002)

SMILES | melting point
CCCC[C@H](CC(=O)NO)C(=O)N[C@H](C(=O)N(C)C)C(C)(C)C | 165 to 166 °C
CCC[C@H](CC(=O)NO)C(=O)N[C@H](C(=O)NC)C(C)(C)C | 200 °C
